25 molecules from patent US12655106B2 (Eikonizo Therapeutics, Inc., priority 2021, dated 2026) can be followed below.

For one assay, the target named is T1, Full length Human HDAC8 (Homo sapiens, UniProt Q9BY41).
T1 construct: Full length Human HDAC8; HIS (N); host or cells: baculovirus expression system
T1 sequence (Q9BY41 1-377): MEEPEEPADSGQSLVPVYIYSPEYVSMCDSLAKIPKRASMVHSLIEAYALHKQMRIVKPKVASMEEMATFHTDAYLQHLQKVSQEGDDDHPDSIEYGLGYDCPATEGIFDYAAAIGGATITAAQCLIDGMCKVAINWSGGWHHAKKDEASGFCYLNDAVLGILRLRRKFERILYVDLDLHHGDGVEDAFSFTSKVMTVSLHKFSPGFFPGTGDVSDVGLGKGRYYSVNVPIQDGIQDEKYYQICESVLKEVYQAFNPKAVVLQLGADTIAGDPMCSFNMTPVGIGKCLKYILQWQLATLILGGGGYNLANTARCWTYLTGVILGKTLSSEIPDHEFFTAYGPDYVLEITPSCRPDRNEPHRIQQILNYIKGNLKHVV
Kind of assay: Caliper endpoint assay for HDAC enzymatic activity (HDAC8). The format is biochemical. The settings on record: in vitro enzymatic, 30 min pre-incubation, 1 μM substrate peptide.

A further assay deals with T2, Full length Human HDAC6 (Homo sapiens, UniProt Q9UBN7).
T2 construct: Full length Human HDAC6; FLAG (C); host or cells: baculovirus expression system
T2 sequence (Q9UBN7 1-1215): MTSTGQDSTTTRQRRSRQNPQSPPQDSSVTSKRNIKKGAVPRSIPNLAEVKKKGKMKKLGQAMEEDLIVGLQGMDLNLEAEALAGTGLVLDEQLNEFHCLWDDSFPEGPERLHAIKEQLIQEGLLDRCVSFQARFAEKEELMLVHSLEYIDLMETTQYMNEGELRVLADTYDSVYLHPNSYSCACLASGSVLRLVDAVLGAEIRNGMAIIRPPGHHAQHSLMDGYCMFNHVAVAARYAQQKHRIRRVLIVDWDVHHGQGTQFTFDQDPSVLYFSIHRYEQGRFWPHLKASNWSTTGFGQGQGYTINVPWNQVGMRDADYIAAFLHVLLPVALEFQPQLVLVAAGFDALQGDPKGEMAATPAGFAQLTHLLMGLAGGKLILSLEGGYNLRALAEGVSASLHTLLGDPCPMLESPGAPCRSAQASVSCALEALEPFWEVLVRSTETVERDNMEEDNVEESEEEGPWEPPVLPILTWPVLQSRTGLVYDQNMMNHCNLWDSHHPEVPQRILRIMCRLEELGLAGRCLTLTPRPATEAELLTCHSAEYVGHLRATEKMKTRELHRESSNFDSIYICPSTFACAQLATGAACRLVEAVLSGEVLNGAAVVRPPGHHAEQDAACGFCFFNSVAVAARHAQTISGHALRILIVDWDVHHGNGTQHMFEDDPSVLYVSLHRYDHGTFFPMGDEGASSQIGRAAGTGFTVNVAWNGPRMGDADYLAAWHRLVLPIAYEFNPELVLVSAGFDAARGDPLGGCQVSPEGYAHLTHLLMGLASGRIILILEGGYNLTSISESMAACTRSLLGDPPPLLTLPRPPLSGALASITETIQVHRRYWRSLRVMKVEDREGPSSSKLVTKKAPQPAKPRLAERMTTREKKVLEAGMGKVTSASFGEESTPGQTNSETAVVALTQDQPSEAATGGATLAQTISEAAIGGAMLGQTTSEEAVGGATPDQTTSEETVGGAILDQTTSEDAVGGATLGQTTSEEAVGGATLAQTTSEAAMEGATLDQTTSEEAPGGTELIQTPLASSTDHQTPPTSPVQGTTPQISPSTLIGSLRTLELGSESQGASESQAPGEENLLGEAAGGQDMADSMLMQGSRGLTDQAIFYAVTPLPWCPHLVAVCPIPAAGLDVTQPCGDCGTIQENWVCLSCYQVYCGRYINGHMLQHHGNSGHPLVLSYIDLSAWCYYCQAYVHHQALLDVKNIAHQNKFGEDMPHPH
Kind of assay: Caliper endpoint assay for HDAC enzymatic activity (HDAC6). The assay is classed as biochemical. The conditions noted are these: for IC50: in vitro enzymatic, Caliper endpoint assay, 30 min pre-incubation, 1 μM substrate peptide; for Selectivity (6 v 8): ratio of HDAC8 IC50/HDAC6 IC50.

Usually IC50 stands for the concentration needed to halve the response being measured. `CC(=O)N1CC2(CC(N3CCc4cc(C(=O)NO)cc(F)c4C3)C2)C1` [Compound 292, 2-(2-acetyl-2-azaspiro[3.3]heptan-6-yl)-8-fluoro-N-hydroxy-1,2,3,4-tetrahydroisoquinoline-6-carboxamide]: the IC50 lay within 10000 to 100000 nM on Full length Human HDAC8 and 1 to 100 nM against Full length Human HDAC6. Besides, the “Selectivity (6 v 8)” value on Full length Human HDAC6 is “IV (IV: >100-1000)”.
On to `O=C(NO)c1cc(F)c2c(c1)C[C@H]1COCCN1C2` (single isomer, unassigned) [Compound 130], for which the IC50 against Full length Human HDAC8 is above 100000 nM; against Full length Human HDAC6, 10000 to 100000 nM.
Molecule `O=C(NO)c1ccc2c(c1)C[C@@H]1COCCN1C2` [Compound 131] yielded an IC50 on Full length Human HDAC8 of 1000 to 10000 nM. At Full length Human HDAC6, the IC50 lay within 100 to 1000 nM and the “Selectivity (6 v 8)” value was “III (III: >10-100)”.
The matching figures for `CC[C@H]1Cc2c(F)cc(C(=O)NO)cc2CN1CC12CC(C1)N(C)C2` (single isomer, unassigned) [Compound 535]: 1000 to 10000 nM, 1 to 100 nM and “IV (IV: >100-1000)”.
The matching figures for `O=C(NO)c1cc(F)c2c(c1)CCN(C1CCC3(CC1)C[S+]([O-])C3)C2` (centres unmarked) [Compound 426, 8-fluoro-2-(2-oxo-2MA-thiaspiro[3.5]nonan-7-yl)-3,4-dihydro-1H-isoquinoline-6-carbohydroxamic acid]: above 100000 nM, 1 to 100 nM and “V (V: >1000)”.
The matching figures for `CN1CCC2(CCC(N3CCc4cc(C(=O)NO)cc(F)c4C3)C2)CC1` (centres unmarked) [Compound 417, 8-fluoro-N-hydroxy-2-(8-methyl-8-azaspiro[4.5]decan-2-yl)-1,2,3,4-tetrahydroisoquinoline-6-carboxamide]: 10000 to 100000 nM, 1 to 100 nM and “IV (IV: >100-1000)”.
At Full length Human HDAC8, `O=C(NO)c1cc(F)c2c(c1)CCN1CCC[C@@H]21` [Compound 79] had a half-maximal inhibitory concentration (IC50) of 1000 to 10000 nM. In addition, at Full length Human HDAC6, the IC50 is 1 to 100 nM and the “Selectivity (6 v 8)” value is listed as “IV (IV: >100-1000)”.
`C[C@H]1C[C@H]2c3c(F)cc(C(=O)NO)cc3CCN2C1` (single isomer, unassigned) [Compound 154]: the IC50 was in the range of 1000 to 10000 nM on Full length Human HDAC8 and 100 to 1000 nM at Full length Human HDAC6.
In turn, `O=C(NO)c1cc(F)c2c(c1)CCN([C@H]1CC[C@]13CCOC3)C2` (single isomer, unassigned) [Compound 316] registered an IC50 against Full length Human HDAC8 of 10000 to 100000 nM. Besides, at Full length Human HDAC6, the concentration for half-maximal inhibition (IC50) was in the range of 1 to 100 nM and the “Selectivity (6 v 8)” value is listed as “V (V: >1000)”.
`O=C(NO)c1cc(F)c2c(c1)C[C@H]1CCCN1C2` [Compound 120]: the half-inhibitory concentration (IC50) against Full length Human HDAC8 lay in the range of 1000 to 10000 nM. In addition, on Full length Human HDAC6, the IC50 fell in the range of 1 to 100 nM and the “Selectivity (6 v 8)” value is “IV (IV: >100-1000)”.
Take `CN1Cc2cc(C(=O)NO)ccc2[C@H]2CCCN21` (single isomer, unassigned) [Compound 161]: the results for the 50% inhibitory concentration (IC50) at Full length Human HDAC8 and against Full length Human HDAC6 were 1000 to 10000 nM and 100 to 1000 nM, respectively.
For `O=C(NO)c1ccc2c(c1)C[C@H]1CCCN1C2` [Compound 122], the IC50 against Full length Human HDAC8 was 1000 to 10000 nM. Also, on Full length Human HDAC6, the concentration for half-maximal inhibition (IC50) is 100 to 1000 nM and the “Selectivity (6 v 8)” value is “III (III: >10-100)”.
In the case of `O=C(NO)c1cc(F)c2c(c1)CCN(C1CC3(CCNCC3)C1)C2` [Compound 197, 2-(7-azaspiro[3.5]nonan-2-yl)-8-fluoro-3,4-dihydro-1H-isoquinoline-6-carbohydroxamic acid], the values for the IC50 against Full length Human HDAC8 and against Full length Human HDAC6 were 10000 to 100000 nM and 1 to 100 nM, respectively. Moreover, the “Selectivity (6 v 8)” value at Full length Human HDAC6 was “IV (IV: >100-1000)”.
The matching figures for `O=C(NO)c1cc(F)c2c(c1)CCN(CC1CC3(CCNCC3)C1)C2` [Compound 468, 2-(7-azaspiro[3.5]nonan-2-ylmethyl)-8-fluoro-3,4-dihydro-1H-isoquinoline-6-carbohydroxamic acid]: 10000 to 100000 nM, 1 to 100 nM and “V (V: >1000)”.
For `CC[C@@H]1CCCN1Cc1ccc(C(=O)NO)cc1F` [Compound 48], the half-maximal inhibitory concentration (IC50) against Full length Human HDAC8 was in the range of 1000 to 10000 nM; against Full length Human HDAC6 it was 1 to 100 nM.
For `O=C(NO)c1ccc2c(c1)CCN1CCCC[C@@H]21` [Compound 89], the half-maximal inhibitory concentration (IC50) against Full length Human HDAC8 and at Full length Human HDAC6 was 1000 to 10000 nM each time. In addition, the “Selectivity (6 v 8)” value at Full length Human HDAC6 is reported as “II (II: >1-10)”.
As for `CN1CC2(CCC2N2CCc3cc(C(=O)NO)cc(F)c3C2)C1` (centres unmarked) [Compound 302, 8-fluoro-2-(2-methyl-2-azaspiro[3.3]heptan-7-yl)-3,4-dihydro-1H-isoquinoline-6-carbohydroxamic acid], at Full length Human HDAC8, the IC50 lay within 1000 to 10000 nM. Further, at Full length Human HDAC6, the 50% inhibitory concentration (IC50) lay in the range of 1 to 100 nM and the “Selectivity (6 v 8)” value was “IV (IV: >100-1000)”.
Consider `O=C(NO)c1cc(F)c2c(c1)CCN(C1CC3(CCCC3)C1)C2` [Compound 183, 8-fluoro-N-hydroxy-2-(spiro[3.4]octan-2-yl)-1,2,3,4-tetrahydroisoquinoline-6-carboxamide], for which the IC50 was above 100000 nM against Full length Human HDAC8 and 1 to 100 nM against Full length Human HDAC6. The “Selectivity (6 v 8)” value at Full length Human HDAC6 was “V (V: >1000)”.
Regarding `CC[C@@H]1Cc2c(F)cc(C(=O)NO)cc2CN1CC12CC(C1)N(C)C2` (single isomer, unassigned) [Compound 534], the results for the half-maximal inhibitory concentration (IC50) against Full length Human HDAC8 and against Full length Human HDAC6 were 10000 to 100000 nM and 100 to 1000 nM, respectively. In addition, on Full length Human HDAC6, the “Selectivity (6 v 8)” value was “IV (IV: >100-1000)”.
The molecule `CC(=O)N1CCC[C@]2(C1)C[C@@H](N1CCc3cc(C(=O)NO)cc(F)c3C1)C2` (single isomer, unassigned) [Compound 349, 2-(6-acetyl-6-azaspiro[3.5]nonan-2-yl)-8-fluoro-3,4-dihydro-1H-isoquinoline-6-carbohydroxamic acid] gave an IC50 at Full length Human HDAC8 of 10000 to 100000 nM. Moreover, on Full length Human HDAC6, the concentration for half-maximal inhibition (IC50) fell in the range of 1 to 100 nM and the “Selectivity (6 v 8)” value is “IV (IV: >100-1000)”.
In turn, `CC[C@H]1Cc2c(F)cc(C(=O)NO)cc2CN1C1CC2(CCOCC2)C1` (single isomer, unassigned) [Compound 591] returned a half-inhibitory concentration (IC50) against Full length Human HDAC8 of 10000 to 100000 nM. On Full length Human HDAC6, the IC50 was 1 to 100 nM and the “Selectivity (6 v 8)” value is listed as “IV (IV: >100-1000)”.
Turning to `CN1C[C@]2(CN3CCc4cc(C(=O)NO)cc(F)c4C3)C[C@H]1CO2` [Compound 475, 8-fluoro-2-[[(1R,4S)-5-methyl-2-oxa-5-azabicyclo[2.2.1]heptan-1-yl]methyl]-3,4-dihydro-1H-isoquinoline-6-carbohydroxamic acid], the IC50 against Full length Human HDAC8 fell in the range of 10000 to 100000 nM; on Full length Human HDAC6 it was 1 to 100 nM. Further, the “Selectivity (6 v 8)” value on Full length Human HDAC6 was “IV (IV: >100-1000)”.
Taken in the same sequence, the figures for `O=C(NO)c1cc(F)c2c(c1)CCN(C1CCC13CCN(C1CC1)CC3)C2` (centres unmarked) [Compound 359, 2-(7-cyclopropyl-7-azaspiro[3.5]nonan-3-yl)-8-fluoro-3,4-dihydro-1H-isoquinoline-6-carbohydroxamic acid] were 1000 to 10000 nM, 100 to 1000 nM and “III (III: >10-100)”.
Taken in the same sequence, the figures for `O=C(NO)c1cc(F)c2c(c1)CCN([C@@H]1CCN(Cc3ccccc3)C3(CCC3)C1)C2` (single isomer, unassigned) [Compound 444] were 10000 to 100000 nM, 1 to 100 nM and “IV (IV: >100-1000)”.
Regarding `O=C(NO)c1cc(F)c2c(c1)CCN(C1CC3(CNC3)C1)C2` [Compound 289, 2-(2-azaspiro[3.3]heptan-6-yl)-8-fluoro-3,4-dihydro-1H-isoquinoline-6-carbohydroxamic acid], the IC50 at Full length Human HDAC8 lay within 1000 to 10000 nM. On Full length Human HDAC6, the IC50 is 1 to 100 nM and the “Selectivity (6 v 8)” value is “IV (IV: >100-1000)”.
